Assay results: ChEMBL document CHEMBL3885861, “Open TG-GATES”

Species on record: Rattus norvegicus
Assay: Open TG-GATES - Regimen: Single
Format: toxicity, organism-based, Sprague-Dawley
Set-up: regimen Single, gender Male, age 6 weeks
Conditions: in vivo, po, 40 mg/kg, route gavage, dose level Low; for APTT / Bas / Eos / Fbg / Hb / Ht / Lym / MCH / MCHC / MCV / Mono / Neu / PT / Plat / RBC / Ret / WBC: tissue Blood; for KIDNEY_L / KIDNEY_R / KIDNEY_TOTAL: tissue Kidney; for LIVER: tissue Liver; for A/G / ALP / ALT / AST / BUN / CRE / Ca / Cl / DBIL / GLC / IP / K / LDH / Na / PL / RALB / TBIL / TC / TG / TP / gamma-GTP: tissue Plasma

In the case of `COc1ccc(Cc2nccc3cc(OC)c(OC)cc23)cc1OC` [PAPAVERINE], the TERMINAL_BW (3 h) is reported as 231 g, the APTT (3 h) is reported as 22.7 s and the Bas (3 h) is reported as 0%. For the same compound, the Eos (3 h) was 0.8%, the Fbg (3 h) was 308.6 mg/dL and the Hb (3 h) was 13.3 g/dL. For the same compound, the Ht (3 h) was 39.9%, the Lym (3 h) was 77% and the MCH (3 h) was 20.8 pg. For the same compound, the MCHC (3 h) was 33.4%, the MCV (3 h) was 62.1 fL and the Mono (3 h) was 2.2%. It also gave a Neu (3 h) of 19%, a PT (3 h) of 15.5 s and a Plat (3 h) of 111.6 x10_4/uL. It also gave an RBC (3 h) of 643.2 x10_4/ul, a Ret (3 h) of 8.1% and a WBC (3 h) of 104.1 x10_2/uL. The KIDNEY_L (3 h) was 0.9 g, the KIDNEY_R (3 h) was 0.9 g and the KIDNEY_TOTAL (3 h) was 1.9 g. For the same compound, the LIVER (3 h) was 10.4 g, the A/G (3 h) was 1.2 and the ALP (3 h) was 1691.2 IU/L. The ALT (3 h) was 41.2 IU/L, the AST (3 h) was 79 IU/L and the BUN (3 h) was 13.4 mg/dL. It also gave a CRE (3 h) of 0.1 mg/dL, a Ca (3 h) of 11.1 mg/dL and a Cl (3 h) of 107.2 meq/L. For the same compound, the DBIL (3 h) was 0 mg/dL, the GLC (3 h) was 179 mg/dL and the IP (3 h) was 7.7 mg/dL. The K (3 h) was 4 meq/L, the LDH (3 h) was 190.4 IU/L and the Na (3 h) was 141.6 meq/L. For the same compound, the PL (3 h) was 135 mg/dL, the RALB (3 h) was 3 g/dL and the TBIL (3 h) was 0.006 mg/dL. It also gave a TC (3 h) of 75.2 mg/dL, a TG (3 h) of 65.6 mg/dL and a TP (3 h) of 5.4 g/dL. For the same compound, the gamma-GTP (3 h) was 1.6 IU/L, the TERMINAL_BW (6 h) was 221.8 g and the APTT (6 h) was 21.2 s. For the same compound, the Bas (6 h) was 0%, the Eos (6 h) was 0.8% and the Fbg (6 h) was 322.4 mg/dL. The Hb (6 h) was 13.4 g/dL, the Ht (6 h) was 39.9% and the Lym (6 h) was 78.2%. For the same compound, the MCH (6 h) was 20.7 pg, the MCHC (6 h) was 33.7% and the MCV (6 h) was 61.5 fL. The Mono (6 h) was 2.8%, the Neu (6 h) was 16.8% and the PT (6 h) was 15.8 s. The Plat (6 h) was 129.6 x10_4/uL, the RBC (6 h) was 647.8 x10_4/ul and the Ret (6 h) was 7.6%. The WBC (6 h) was 105.5 x10_2/uL, the KIDNEY_L (6 h) was 1 g and the KIDNEY_R (6 h) was 1 g. For the same compound, the KIDNEY_TOTAL (6 h) was 1.9 g, the LIVER (6 h) was 9.4 g and the A/G (6 h) was 1.2. It also gave an ALP (6 h) of 1422 IU/L, an ALT (6 h) of 36.2 IU/L and an AST (6 h) of 72.4 IU/L. It also gave a BUN (6 h) of 10.6 mg/dL, a CRE (6 h) of 0.1 mg/dL and a Ca (6 h) of 11.1 mg/dL. It also gave a Cl (6 h) of 106.8 meq/L, a DBIL (6 h) of 0.002 mg/dL and a GLC (6 h) of 179.8 mg/dL. The IP (6 h) was 8.9 mg/dL, the K (6 h) was 4.3 meq/L and the LDH (6 h) was 161.2 IU/L. For the same compound, the Na (6 h) was 140.6 meq/L, the PL (6 h) was 124.6 mg/dL and the RALB (6 h) was 3 g/dL. For the same compound, the TBIL (6 h) was 0.012 mg/dL, the TC (6 h) was 71.4 mg/dL and the TG (6 h) was 64 mg/dL. For the same compound, the TP (6 h) was 5.4 g/dL, the gamma-GTP (6 h) was 2.2 IU/L and the TERMINAL_BW (9 h) was 221.9 g. The APTT (9 h) was 21 s, the Bas (9 h) was 0% and the Eos (9 h) was 1%. The Fbg (9 h) was 325 mg/dL, the Hb (9 h) was 13.5 g/dL and the Ht (9 h) was 40.5%. It also gave a Lym (9 h) of 78.6%, an MCH (9 h) of 20.4 pg and an MCHC (9 h) of 33.4%. The MCV (9 h) was 61.2 fL, the Mono (9 h) was 3% and the Neu (9 h) was 16.6%. The PT (9 h) was 15.4 s, the Plat (9 h) was 114.2 x10_4/uL and the RBC (9 h) was 661.8 x10_4/ul. For the same compound, the Ret (9 h) was 7.6%, the WBC (9 h) was 78.8 x10_2/uL and the KIDNEY_L (9 h) was 1 g. For the same compound, the KIDNEY_R (9 h) was 1 g, the KIDNEY_TOTAL (9 h) was 1.9 g and the LIVER (9 h) was 9.4 g. It also gave an A/G (9 h) of 1.3, an ALP (9 h) of 1463.2 IU/L and an ALT (9 h) of 37 IU/L. For the same compound, the AST (9 h) was 70.2 IU/L, the BUN (9 h) was 11 mg/dL and the CRE (9 h) was 0.1 mg/dL. The Ca (9 h) was 11.1 mg/dL, the Cl (9 h) was 107.4 meq/L and the DBIL (9 h) was 0 mg/dL. The GLC (9 h) was 183.6 mg/dL, the IP (9 h) was 9.2 mg/dL and the K (9 h) was 4 meq/L. The LDH (9 h) was 150.2 IU/L, the Na (9 h) was 140.6 meq/L and the PL (9 h) was 133.6 mg/dL. For the same compound, the RALB (9 h) was 3 g/dL, the TBIL (9 h) was 0.02 mg/dL and the TC (9 h) was 73.2 mg/dL. For the same compound, the TG (9 h) was 69.8 mg/dL, the TP (9 h) was 5.4 g/dL and the gamma-GTP (9 h) was 1.6 IU/L. For the same compound, the TERMINAL_BW (24 h) was 234.3 g, the APTT (24 h) was 21.8 s and the Bas (24 h) was 0%. The Eos (24 h) was 0.8%, the Fbg (24 h) was 309.2 mg/dL and the Hb (24 h) was 13.5 g/dL. For the same compound, the Ht (24 h) was 40.7%, the Lym (24 h) was 82.6% and the MCH (24 h) was 21.3 pg. The MCHC (24 h) was 33.3%, the MCV (24 h) was 63.9 fL and the Mono (24 h) was 2.4%. For the same compound, the Neu (24 h) was 13.2%, the PT (24 h) was 16.3 s and the Plat (24 h) was 114.1 x10_4/uL. It also gave an RBC (24 h) of 636.4 x10_4/ul, a Ret (24 h) of 7.1% and a WBC (24 h) of 90.3 x10_2/uL. The KIDNEY_L (24 h) was 1 g, the KIDNEY_R (24 h) was 1 g and the KIDNEY_TOTAL (24 h) was 2 g. It also gave an LIVER (24 h) of 10.8 g, an A/G (24 h) of 1.3 and an ALP (24 h) of 1546.4 IU/L. The ALT (24 h) was 47 IU/L, the AST (24 h) was 79 IU/L and the BUN (24 h) was 16.2 mg/dL. For the same compound, the CRE (24 h) was 0.1 mg/dL, the Ca (24 h) was 10.6 mg/dL and the Cl (24 h) was 107.4 meq/L. The DBIL (24 h) was 0 mg/dL, the GLC (24 h) was 195.4 mg/dL and the IP (24 h) was 6.9 mg/dL. The K (24 h) was 4.4 meq/L, the LDH (24 h) was 207.6 IU/L and the Na (24 h) was 142.8 meq/L. It also gave a PL (24 h) of 126.6 mg/dL, an RALB (24 h) of 3.1 g/dL and a TBIL (24 h) of 0.004 mg/dL. The TC (24 h) was 67.6 mg/dL, the TG (24 h) was 123 mg/dL and the TP (24 h) was 5.4 g/dL. It also gave a gamma-GTP (24 h) of 1.2 IU/L.
